Test results as given in article PMC10082216 (Nature Communications, 2023).
Where two headings read alike, the source gives them in different places.

What was measured:
[1] = tested on: mature stage V gametocytes (NF54 strain); experiment: microbe, parasite or virus in culture; type: cell-based, Plasmodium falciparum; settings: for IC50 / IC90: Plasmodium falciparum; for IC90: NF54, read-out: Retention IC90; for Retention IC10: Fig. 3 dose-response
Procedure, shortened: (§1)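 NF54 stage V gametocytes (day 17, density-purified, 0.5% hematocrit) exposed 24 h to compounds at 1.11 µM (primary) or in dose-response. Killing scored by MitoTracker staining; gametocytemia by Sybr Green/CellMask staining, with microsphiltration for stiffening. DMSO 0.05% negative control.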

[2] = tested on: mature stage V gametocytes (NF54 strain); experiment: High-throughput screening: killing effect by MitoTracker staining, primary screening at 1.11 µM and dose-response analysis; type: cell-based, Plasmodium falciparum; set-up: Killing 1 / Killing 2: unit not given here
Procedure, shortened: as §1

[3] = Hit scoring on safety in human subjects and pharmacokinetics; settings: for Score (PK): peak plasma concentration vs IC50
Description: Hits from the ReFrame library were further selected based on safety, preferably oral administration (high score if oral), and potential availability for widespread use.

[4] = tested on: synchronized ring-stage P. falciparum 3D7-pULG8-GFP; experiment: Dose-response analysis on asexual parasites, 3D7; type: cell-based; settings: Plasmodium falciparum
Procedure: (§2) Plasmodium falciparum 3D7-pULG8-GFP or NF54 strains were synchronized by sorbitol lysis. Rings were then diluted to 0.5% parasitemia and loaded into an empty 96-well plate (200 µL/well). First, well volume was doubled and compound was added to obtain 20 µM (TD-6450) and 500 nM (NITD609) final concentrations. The ring suspension was then manually serially diluted 1/2 for 12 points, obtaining 9.77 nM (TD-6450) and 0.24 nM (NITD609) as lowest concentrations. The same operation was done with DMSO to have a negative control. After 48 hours of incubation, the plates were centrifugated and RBC pellets were incubated for 30 min with Sybr-G (1/1000 diluted in PBS, Thermo Fisher cat. no. S7567). After PBS washing (2x), pellets were resuspended in 200 µL of PBS and parasitemia was quantified by FACSCanto and analyzed with FlowJo V12. IC50s were determined using GraphPad Prism 5.1 as mentioned. Images from optical microscopy were taken using a Leica inverted microscope and analyzed with Las X software.

[5] = tested on: synchronized ring-stage P. falciparum NF54; experiment: Dose-response analysis on asexual parasites, NF54; type: cell-based, Plasmodium falciparum; settings: for IC50: Plasmodium falciparum, NF54, 48 h; for Parasitemia 1 / Parasitemia 2 / Parasitemia 3: NF54 ring stage
Procedure: as §2

[6] = NF54, 24 h, read-out: Stiffening IC50 (retention)
[7] = 3D7, 48 h, read-out: IC50, 3D7 strain (Fig. 5B)

For `COc1cc2c(cc1OC)[C@@H]1Cc3ccc(OC)c(OC)c3CN1CC2` [(S)-(-)-Tetrahydropalmatine], the “Retention 1” value ([1]; Concentration 0.00457) was 36.1518, the “Retention 2” value ([1]; Concentration 0.00457) was 18.1904 and the “Retention 1” value ([1]; Concentration 0.01372) was 42.4295. The “Retention 2” value ([1]; Concentration 0.01372) was 17.9082, the “Retention 1” value ([1]; Concentration 0.04115) was 39.0679 and the “Retention 2” value ([1]; Concentration 0.04115) was 21.6203. For the same compound, the “Retention 1” value ([1]; Concentration 0.12346) was 52.9692, the “Retention 2” value ([1]; Concentration 0.12346) was 17.6021 and the “Retention 1” value ([1]; Concentration 0.37037) was 34.5737. The “Retention 2” value ([1]; Concentration 0.37037) was 33.9194, the “Retention 1” value ([1]; Concentration 1.11111) was 41.4215 and the “Retention 2” value ([1]; Concentration 1.11111) was 25.646. The “Retention 1” value ([1]; Concentration 3.33333) was 50.7426, the “Retention 2” value ([1]; Concentration 3.33333) was 20.0803 and the “Retention 1” value ([1]; Concentration 10) was 49.3139. The “Retention 2” value ([1]; Concentration 10) was 22.5855, the IC50 [1, 6] was 1 nM and the IC90 [1] was 6 nM. For the same compound, the “Killing 1” value ([2]; Concentration (µM) 0.00457) was -2.5151, the “Killing 2” value ([2]; Concentration (µM) 0.00457) was 13.1152 and the “Killing 1” value ([2]; Concentration (µM) 0.01372) was -0.7507. The “Killing 2” value ([2]; Concentration (µM) 0.01372) was 16.6892, the “Killing 1” value ([2]; Concentration (µM) 0.04115) was -11.759 and the “Killing 2” value ([2]; Concentration (µM) 0.04115) was -1.725. The “Killing 1” value ([2]; Concentration (µM) 0.12346) was -2.104, the “Killing 2” value ([2]; Concentration (µM) 0.12346) was -3.416 and the “Killing 1” value ([2]; Concentration (µM) 0.37037) was -7.032. The “Killing 2” value ([2]; Concentration (µM) 0.37037) was 6.932, the “Killing 2” value ([2]; Concentration (µM) 1.11111) was -20.6174 and the “Killing 2” value ([2]; Concentration (µM) 3.33333) was 1.7558. For the same compound, the “Killing 2” value ([2]; Concentration (µM) 10) was -10.2887, the “Score (safety)” value [3] was 3 and the “Score (PK)” value [3] was 6 (Peak plasma concentration higher than 3 IC50 (Score = 6)).

For `C[C@H]1Cc2c([nH]c3cc(Cl)c(F)cc23)[C@@]2(N1)C(=O)Nc1ccc(Cl)cc12` [NITD609, cipargamin], the IC50 [4, 7] was 1.25 nM, the “Retention 1” value ([1]; Concentration 0.00457) was 5.495 and the “Retention 2” value ([1]; Concentration 0.00457) was 24.2833. For the same compound, the “Retention 1” value ([1]; Concentration 0.01372) was 19.4986, the “Retention 2” value ([1]; Concentration 0.01372) was 27.3994 and the “Retention 1” value ([1]; Concentration 0.04115) was 24.1896. The “Retention 2” value ([1]; Concentration 0.04115) was 16.3872, the “Retention 1” value ([1]; Concentration 0.12346) was 74.5556 and the “Retention 2” value ([1]; Concentration 0.12346) was 59.61. The “Retention 1” value ([1]; Concentration 0.37037) was 100, the “Retention 2” value ([1]; Concentration 0.37037) was 100 and the “Retention 1” value ([1]; Concentration 1.11111) was 100. The “Retention 2” value ([1]; Concentration 1.11111) was 94.1314, the “Retention 1” value ([1]; Concentration 3.33333) was 100 and the “Retention 2” value ([1]; Concentration 3.33333) was 100. The “Retention 1” value ([1]; Concentration 10) was 100, the “Retention 2” value ([1]; Concentration 10) was 100 and the “Retention IC10” value [1] was 60 nM. For the same compound, the IC50 [1, 6] was 110 nM, the IC90 [1] was 160 nM and the IC50 ([5]; ring stage, red curves, read-out: IC50, NF54 strain (Fig. 5B)) was 1.8 nM. The “Killing 1” value ([2]; Concentration (µM) 0.00457) was -6.197, the “Killing 2” value ([2]; Concentration (µM) 0.00457) was 1.637 and the “Killing 1” value ([2]; Concentration (µM) 0.01372) was 7.015. For the same compound, the “Killing 2” value ([2]; Concentration (µM) 0.01372) was 11.7246, the “Killing 1” value ([2]; Concentration (µM) 0.04115) was 2.936 and the “Killing 2” value ([2]; Concentration (µM) 0.04115) was 8.401. The “Killing 1” value ([2]; Concentration (µM) 0.12346) was 38.3591, the “Killing 2” value ([2]; Concentration (µM) 0.12346) was 39.938 and the “Killing 1” value ([2]; Concentration (µM) 0.37037) was 69.6281. The “Killing 2” value ([2]; Concentration (µM) 0.37037) was 81.8548, the “Killing 1” value ([2]; Concentration (µM) 1.11111) was 86.7644 and the “Killing 2” value ([2]; Concentration (µM) 1.11111) was 86.5546. The “Killing 1” value ([2]; Concentration (µM) 3.33333) was 82.0471, the “Killing 2” value ([2]; Concentration (µM) 3.33333) was 89.8018 and the “Killing 1” value ([2]; Concentration (µM) 10) was 93.1364. For the same compound, the “Killing 2” value ([2]; Concentration (µM) 10) was 89.7094, the “Killing IC10” value ([2]; Fig. 3 dose-response) was 50 nM and the IC50 ([2]; Plasmodium falciparum, NF54, 24 h, stage V gametocytes NF54, 24 h, dose-response analysis, N/A = not active in dose-response analysis, read-out: Killing IC50) was 150 nM. The IC90 ([2]; Plasmodium falciparum, NF54, Fig. 3 dose-response) was 500 nM, the “Score (safety)” value [3] was 3 and the “Score (PK)” value [3] was 6 (Peak plasma concentration higher than 3 IC50 (Score = 6)).

With `CNC(=O)N1C[C@@H](C)N(c2ccc(C(=O)Nc3ccc(-c4ccc(-c5c[nH]c([C@@H]6CCCN6C(=O)[C@@H](NC(=O)OC)C(C)C)n5)cc4)c(OC(F)(F)F)c3)cn2)C[C@@H]1C` [TD-6450] the IC50 [4, 7] was 730 nM, the IC50 ([4]; 3D7, 2 experiments, 48 h, read-out: IC50 on asexual parasites, 3D7) was 875 ± 205 nM and the “outcome of primary screen (hit definition)” value ([1]; 1.11 µM) was “met the hit definition”. For the same compound, the “Retention 1” value ([1]; Concentration 0.00457) was 6.791, the “Retention 2” value ([1]; Concentration 0.00457) was 14.2035 and the “Retention 1” value ([1]; Concentration 0.01372) was 30.2208. The “Retention 2” value ([1]; Concentration 0.01372) was 10.7025, the “Retention 1” value ([1]; Concentration 0.04115) was 30.7002 and the “Retention 2” value ([1]; Concentration 0.04115) was 37.9062. For the same compound, the “Retention 1” value ([1]; Concentration 0.12346) was 45.793, the “Retention 2” value ([1]; Concentration 0.12346) was 33.0106 and the “Retention 1” value ([1]; Concentration 0.37037) was 16.5379. For the same compound, the “Retention 2” value ([1]; Concentration 0.37037) was 35.496, the “Retention 1” value ([1]; Concentration 1.11111) was 46.8849 and the “Retention 2” value ([1]; Concentration 1.11111) was 58.9321. The “Retention 1” value ([1]; Concentration 3.33333) was 60.4317, the “Retention 2” value ([1]; Concentration 3.33333) was 53.8901 and the “Retention 1” value ([1]; Concentration 10) was 70.8882. The “Retention 2” value ([1]; Concentration 10) was 66.7706, the “Retention IC10” value [1] was 30 nM and the IC50 [1, 6] was 550 nM. For the same compound, the IC50 ([1]; NF54, read-out: IC50 during the screening campaign, all gametocytes stained) was 455 ± 304 nM, the IC90 [1] was 4500 nM and the “differential retention rate versus DMSO upon primary screening” value ([1]; one well/compound, 1.11 µM) was 32%. The “Parasitemia 1” value ([5]; 10 µM) was 0.14, the “Parasitemia 2” value ([5]; 10 µM) was 0.17 and the “Parasitemia 3” value ([5]; 10 µM) was 0.23. For the same compound, the “Parasitemia 1” value ([5]; 20 µM) was 0.2, the “Parasitemia 2” value ([5]; 20 µM) was 0.18 and the “Parasitemia 3” value ([5]; 20 µM) was 0.2. For the same compound, the IC50 ([5]; 2 experiments, read-out: IC50 on asexual parasites, NF54) was 1330 ± 230 nM, the IC50 ([5]; ring stage, blue curves, read-out: IC50, NF54 strain (Fig. 5B)) was 1170 nM and the “Killing 1” value ([2]; Concentration (µM) 0.00457) was 11.2808. For the same compound, the “Killing 2” value ([2]; Concentration (µM) 0.00457) was -14.2963, the “Killing 1” value ([2]; Concentration (µM) 0.01372) was 2.341 and the “Killing 2” value ([2]; Concentration (µM) 0.01372) was 5.18. For the same compound, the “Killing 1” value ([2]; Concentration (µM) 0.04115) was 2.7905, the “Killing 2” value ([2]; Concentration (µM) 0.04115) was -6.465 and the “Killing 1” value ([2]; Concentration (µM) 0.12346) was 6.495. The “Killing 2” value ([2]; Concentration (µM) 0.12346) was 2.622, the “Killing 1” value ([2]; Concentration (µM) 0.37037) was 21.5808 and the “Killing 2” value ([2]; Concentration (µM) 0.37037) was 10.8967. For the same compound, the “Killing 1” value ([2]; Concentration (µM) 1.11111) was 13.8006, the “Killing 2” value ([2]; Concentration (µM) 1.11111) was -5.531 and the “Killing 1” value ([2]; Concentration (µM) 3.33333) was 21.7528. For the same compound, the “Killing 2” value ([2]; Concentration (µM) 3.33333) was 15.2641, the “Killing 1” value ([2]; Concentration (µM) 10) was 38.4381 and the “Killing 2” value ([2]; Concentration (µM) 10) was 9.163. For the same compound, the “Score (safety)” value [3] was 3 and the “Score (PK)” value [3] was 3 (Peak plasma concentration between IC50 and 3 IC50 (Score = 3)).
